Measurements taken from patent US10934298B2, “Substituted pyrazolo[1,5-a]pyrimidines for the treatment of medical disorders” (BIAL—BioTech Investments, Inc., priority 2016, dated 2021).

Target: T1, glucocerebrosidase (Gcase) (Homo sapiens, UniProt P04062)
T1 construct: micellar solution containing 10 nM GCase and 100 nM saposin C
T1 sequence (P04062 40-536): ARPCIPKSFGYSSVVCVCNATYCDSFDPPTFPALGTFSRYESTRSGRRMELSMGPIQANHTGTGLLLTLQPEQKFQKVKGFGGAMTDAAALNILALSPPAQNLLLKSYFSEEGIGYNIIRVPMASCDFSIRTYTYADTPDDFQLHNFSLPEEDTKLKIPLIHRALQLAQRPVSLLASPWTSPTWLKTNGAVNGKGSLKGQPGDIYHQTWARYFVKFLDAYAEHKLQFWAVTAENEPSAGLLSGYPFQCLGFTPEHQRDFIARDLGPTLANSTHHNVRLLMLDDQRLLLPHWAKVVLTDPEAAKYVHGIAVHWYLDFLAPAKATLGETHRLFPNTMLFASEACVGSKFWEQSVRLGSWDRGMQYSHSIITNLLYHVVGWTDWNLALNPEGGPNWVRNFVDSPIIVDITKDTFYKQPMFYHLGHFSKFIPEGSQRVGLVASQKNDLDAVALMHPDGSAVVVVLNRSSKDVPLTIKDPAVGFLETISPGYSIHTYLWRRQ
Assay: Glucocerebrosidase (Gcase) activation assay with 4-methylumbelliferyl-beta-D-glucopyranoside substrate, saposin C and phosphatidylserine/triton micelles, fluorescence readout
Type: biochemical
Method in brief: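 10 nM GCase with 100 nM saposin C pre-incubated 30 min with compound in pH 4.7 phosphate/citrate PS/triton micelles, then mixed 1:1 with 2 mM 4-methylumbelliferyl-β-glucoside micellar substrate (stock level). Run 15 min at room temperature, stopped at pH 12.5; fluorescence 365/440 nm. Screened at 1.0 and 0.1 μM; 8-point curves from 5 μM.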

Structure (SMILES) | Percent Gcase Activation, 0.1 μM Test Compound (test compound at 0.1 μM) | Percent Gcase Activation, 1 μM Test Compound (test compound at 1.0 μM) | also measured
Cc1cc(-c2ccc(F)cc2C#N)nc2c(C(=O)N[C@@H](C)C(F)(F)F)cnn12 [III-156] | *** (greater than 20% Gcase activation) | +++ (Gcase activation greater than 60%) | 
COCc1cc(-c2cccc(F)c2)nc2c(C(=O)NC(C)(C)C3CC3)cnn12 [III-74] |  |  | Percent Gcase Activation, 0.1 μM Test Compound (0.1 μM test compound, Table 3A): ** (Gcase activation in the range of 10% up to 20%); Percent Gcase Activation, 1 μM Test Compound (1 μM test compound, Table 3A): +++ (Gcase activation greater than 60%)
Cc1cc(NC2CC2)nc2c(C(=O)N[C@@H](C)C3CC3)cnn12 [III-166] | ** (Gcase activation in the range of 10% up to 20%) | +++ (Gcase activation greater than 60%) | 
Cc1cc(-c2cc(C)n3ncc(C(=O)N[C@H](C4CC4)C(F)(F)F)c3n2)no1 [III-341] |  |  | Percent Gcase Activation, 0.1 μM Test Compound (0.1 μM test compound): *** (greater than 20% Gcase activation); Percent Gcase Activation, 1 μM Test Compound (1 μM test compound): +++ (Gcase activation greater than 60%)
Cc1cc(N2CCCCC2)nc2c(C(=O)NC(C)(C)C3CC3)cnn12 [III-23] |  |  | Percent Gcase Activation, 0.1 μM Test Compound (0.1 μM test compound, Table 3A): *** (greater than 20% Gcase activation); Percent Gcase Activation, 1 μM Test Compound (1 μM test compound, Table 3A): +++ (Gcase activation greater than 60%)
CCOc1cccc(-c2cc(C)n3ncc(C(=O)NC(C)C(F)(F)F)c3n2)c1 (stereo not shown) [III-76] |  |  | Percent Gcase Activation, 0.1 μM Test Compound (0.1 μM test compound, Table 3A): *** (greater than 20% Gcase activation); Percent Gcase Activation, 1 μM Test Compound (1 μM test compound, Table 3A): +++ (Gcase activation greater than 60%)
COc1c(F)cccc1-c1cc(C)n2ncc(C(=O)NC(C3CC3)C(F)(F)F)c2n1 (stereo not shown) [III-139] | ** (Gcase activation in the range of 10% up to 20%) | +++ (Gcase activation greater than 60%) | 
Cc1cc(C)n2ncc(C(=O)N[C@H]3CC[C@H](OC(C)(C)C)CC3)c2n1 [III-190] | * (less than 10% Gcase activation) | + (less than 30% Gcase activation) | 
Cc1cc(-c2cccc(F)n2)nc2c(C(=O)N[C@@H](C)C3CC3)cnn12 [III-134] | ** (Gcase activation in the range of 10% up to 20%) | +++ (Gcase activation greater than 60%) | 
Cc1cc(-c2ccc(F)cc2C#N)nc2c(C(=O)NC(C)C(F)(F)F)cnn12 (stereo not shown) [III-154] | *** (greater than 20% Gcase activation) | +++ (Gcase activation greater than 60%) | 
Cc1cc(-c2sccc2C#N)nc2c(C(=O)N[C@H](C)C3CC3)cnn12 [III-302] |  |  | Percent Gcase Activation, 0.1 μM Test Compound (0.1 μM test compound): *** (greater than 20% Gcase activation); Percent Gcase Activation, 1 μM Test Compound (1 μM test compound): +++ (Gcase activation greater than 60%)
Cc1cc(N2CCCCC2)n2ncc(C(=O)NC(C)(C)C3CC3)c2n1 [III-22] |  |  | Percent Gcase Activation, 0.1 μM Test Compound (0.1 μM test compound, Table 3A): * (less than 10% Gcase activation); Percent Gcase Activation, 1 μM Test Compound (1 μM test compound, Table 3A): ++ (Gcase activation in the range of 30% up to 60%)
Cc1cc(C)n2ncc(C(=O)N[C@@H](C)C3CC3)c2n1 [III-1] |  |  | Percent Gcase Activation, 0.1 μM Test Compound (0.1 μM test compound, Table 3A): * (less than 10% Gcase activation); Percent Gcase Activation, 1 μM Test Compound (1 μM test compound, Table 3A): ++ (Gcase activation in the range of 30% up to 60%)
Cc1cc(-c2cncc(C(F)(F)F)c2)nc2c(C(=O)N[C@@H](C)C(F)(F)F)cnn12 [III-287] |  |  | Percent Gcase Activation, 0.1 μM Test Compound (0.1 μM test compound): *** (greater than 20% Gcase activation); Percent Gcase Activation, 1 μM Test Compound (1 μM test compound): +++ (Gcase activation greater than 60%)
Cc1cc(C)n2ncc(C(=O)NC(C)(C)C3CC3)c2n1 [III-2] |  |  | Percent Gcase Activation, 0.1 μM Test Compound (0.1 μM test compound, Table 3A): ** (Gcase activation in the range of 10% up to 20%); Percent Gcase Activation, 1 μM Test Compound (1 μM test compound, Table 3A): +++ (Gcase activation greater than 60%)
C#CC(C)(C)NC(=O)c1cnn2c(C)cc(-c3ccns3)nc12 [III-412] |  |  | Percent Gcase Activation, 0.1 μM Test Compound (0.1 μM test compound): * (less than 10% Gcase activation); Percent Gcase Activation, 1 μM Test Compound (1 μM test compound): +++ (Gcase activation greater than 60%)
Cc1cc(-c2ccc(F)c(C#N)c2)nc2c(C(=O)NC(C)C(F)(F)F)cnn12 (stereo not shown) [III-159] | ** (Gcase activation in the range of 10% up to 20%) | +++ (Gcase activation greater than 60%) | 
Cc1cc(-c2ccoc2)nc2c(C(=O)NC(C3CC3)C(F)(F)F)cnn12 (stereo not shown) [III-187] | *** (greater than 20% Gcase activation) | +++ (Gcase activation greater than 60%) | 
Cc1cc(-c2ccns2)nc2c(C(=O)NC(C)C(F)(F)F)cnn12 (stereo not shown) [III-178] | ** (Gcase activation in the range of 10% up to 20%) | +++ (Gcase activation greater than 60%) | 
COc1c(F)cccc1-c1cc(C)n2ncc(C(=O)N[C@@H](C)C3CC3)c2n1 [III-138] | ** (Gcase activation in the range of 10% up to 20%) | +++ (Gcase activation greater than 60%) | 
Cc1ccc(-c2cc(C)n3ncc(C(=O)N[C@H](C4CC4)C(F)(F)F)c3n2)cn1 [III-279] | ** (Gcase activation in the range of 10% up to 20%) | +++ (Gcase activation greater than 60%) | 
Cc1cc(-c2ccccc2C#N)nc2c(C(=O)N[C@H](C)C(F)(F)F)cnn12 [III-212] | * (less than 10% Gcase activation) | ++ (Gcase activation in the range of 30% up to 60%) | 
Cc1cc(-c2ccc(F)c(C#N)c2)nc2c(C(=O)N[C@@H](C)C3CC3)cnn12 [III-157] | *** (greater than 20% Gcase activation) | +++ (Gcase activation greater than 60%) | 
COCc1cc(-c2ccc(F)cc2)nc2c(C(=O)NC(C)(C)C3CC3)cnn12 [III-47] |  |  | Percent Gcase Activation, 0.1 μM Test Compound (0.1 μM test compound, Table 3A): ** (Gcase activation in the range of 10% up to 20%); Percent Gcase Activation, 1 μM Test Compound (1 μM test compound, Table 3A): +++ (Gcase activation greater than 60%)
Cc1nc(-c2cc(C)n3ncc(C(=O)N[C@H](C4CC4)C(F)(F)F)c3n2)oc1C [III-331] |  |  | Percent Gcase Activation, 0.1 μM Test Compound (0.1 μM test compound): *** (greater than 20% Gcase activation); Percent Gcase Activation, 1 μM Test Compound (1 μM test compound): +++ (Gcase activation greater than 60%)
Cc1cc(-c2cccc(F)c2)nc2c(C(=O)N[C@H](C)C3CC3)cnn12 [III-92] | *** (greater than 20% Gcase activation) | +++ (Gcase activation greater than 60%) | 
CCc1cc(-c2ccccn2)nc2c(C(=O)NC(C)C3CC3)cnn12 (stereo not shown) [III-49] |  |  | Percent Gcase Activation, 0.1 μM Test Compound (0.1 μM test compound, Table 3A): * (less than 10% Gcase activation); Percent Gcase Activation, 1 μM Test Compound (1 μM test compound, Table 3A): +++ (Gcase activation greater than 60%)
Cc1cc(-c2cccc3ncoc23)nc2c(C(=O)N[C@H](C)C3CC3)cnn12 [III-218] | * (less than 10% Gcase activation) | ++ (Gcase activation in the range of 30% up to 60%) | 
Cc1cc(-c2cncc(C#N)c2)nc2c(C(=O)NC(C)(C)C3CC3)cnn12 [III-369] |  |  | Percent Gcase Activation, 0.1 μM Test Compound (0.1 μM test compound): ** (Gcase activation in the range of 10% up to 20%); Percent Gcase Activation, 1 μM Test Compound (1 μM test compound): +++ (Gcase activation greater than 60%)

Second part, led by results:

Percent Gcase Activation, 0.1 μM Test Compound (test compound at 0.1 μM) | Percent Gcase Activation, 1 μM Test Compound (test compound at 1.0 μM) | Structure (SMILES) | also measured
*** (greater than 20% Gcase activation) | +++ (Gcase activation greater than 60%) | Cc1ncc(-c2cc(C)n3ncc(C(=O)N[C@H](C4CC4)C(F)(F)F)c3n2)o1 [III-247] | 
* (less than 10% Gcase activation) | + (less than 30% Gcase activation) | Cc1cc(N2CCN(C(C)C)C2=O)nc2c(C(=O)NC(C)(C)C)cnn12 [III-232] | 
*** (greater than 20% Gcase activation) | +++ (Gcase activation greater than 60%) | Cc1cncc(-c2cc(C)n3ncc(C(=O)N[C@@H](C4CC4)C(F)(F)F)c3n2)c1 [III-277] | 
*** (greater than 20% Gcase activation) | +++ (Gcase activation greater than 60%) | Cc1cc(-c2ccns2)nc2c(C(=O)N[C@@H](C)C3CC3)cnn12 [III-197] | 
*** (greater than 20% Gcase activation) | +++ (Gcase activation greater than 60%) | Cc1ccc(-c2cc(C)n3ncc(C(=O)NC(C4CC4)C(F)(F)F)c3n2)cn1 (stereo not shown) [III-278] | 
*** (greater than 20% Gcase activation) | +++ (Gcase activation greater than 60%) | Cc1oc(C#N)cc1-c1cc(C)n2ncc(C(=O)N[C@@H](C3CC3)C(F)(F)F)c2n1 [III-244] | 
*** (greater than 20% Gcase activation) | +++ (Gcase activation greater than 60%) | COc1ccc(F)cc1-c1cc(C)n2ncc(C(=O)N[C@H](C)C(F)(F)F)c2n1 [III-195] | 
*** (greater than 20% Gcase activation) | +++ (Gcase activation greater than 60%) | Cc1cc(-c2cc(Cl)ccn2)nc2c(C(=O)NC(C3CC3)C(F)(F)F)cnn12 (stereo not shown) [III-207] | 
*** (greater than 20% Gcase activation) | +++ (Gcase activation greater than 60%) | Cc1cc(-c2cc(C)n3ncc(C(=O)N[C@H](C4CC4)C(F)(F)F)c3n2)sn1 [III-215] | 
